# Reference: patent publication US11912686B2 (Gilead Sciences, Inc., priority 2020, dated 2024)
# Biological target: human LPAR1 (Homo sapiens (Human), UniProt Q92633)
# Assay: LPAR1 intracellular calcium mobilization assay (antagonist mode, FLIPR)
# Assay type: cell-based
# Details: CHO-K1 EDG2 cells expressing human LPAR1, LPA 18:2 at EC80 (100 nM), test compound 0.5 nM to 10 μM
# Chain of human LPAR1 (Q92633 whole entry): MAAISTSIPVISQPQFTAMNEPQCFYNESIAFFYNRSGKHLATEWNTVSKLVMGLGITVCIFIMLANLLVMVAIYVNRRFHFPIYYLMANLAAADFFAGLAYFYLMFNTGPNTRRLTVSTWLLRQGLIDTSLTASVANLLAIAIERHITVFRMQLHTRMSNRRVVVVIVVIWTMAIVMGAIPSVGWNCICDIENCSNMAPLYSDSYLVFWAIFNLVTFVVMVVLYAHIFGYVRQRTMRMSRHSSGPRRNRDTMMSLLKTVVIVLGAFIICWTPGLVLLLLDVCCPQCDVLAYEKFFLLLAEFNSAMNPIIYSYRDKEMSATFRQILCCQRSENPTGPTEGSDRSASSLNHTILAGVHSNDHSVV
row,Compound,EC50
1,"C[C@@H](OC(=O)Nc1c(-c2ccc(NC(=O)C3CC4(CCC4)C3)cn2)nnn1C)c1cccnc1Cl [Compound 73, (R)-1-(2-chloropyridin-3-yl)ethyl (1-methyl-4-(5-(spiro[3.3]heptane-2-carboxamido)pyridin-2-yl)-1H-1,2,3-triazol-5-yl)carbamate]",17.3 nM
2,"C[C@@H](OC(=O)Nc1c(-c2ccc(NC(=O)c3cnc(N(C)C)nc3)cn2)nnn1C)c1cc(F)cnc1F [Compound 282, (R)-1-(2,5-difluoropyridin-3-yl)ethyl (4-(5-(2-(dimethylamino)pyrimidine-5-carboxamido)pyridin-2-yl)-1-methyl-1H-1,2,3-triazol-5-yl)carbamate]",1190 nM
3,"Cc1nonc1C(=O)Nc1ccc(-c2nnn(C)c2NC(=O)O[C@H](C)c2cc(F)cnc2F)nc1 [Compound 239, (R)-1-(2,5-difluoropyridin-3-yl)ethyl (1-methyl-4-(5-(4-methyl-1,2,5-oxadiazole-3-carboxamido)pyridin-2-yl)-1H-1,2,3-triazol-5-yl)carbamate]",62.3 nM
4,"C[C@@H](OC(=O)Nc1c(-c2ccc(NC(=O)[C@H]3[C@H](c4ccccc4)C3(F)F)cn2)nnn1C)c1cc(F)cnc1F (mixture of isomers) [Compound 247, (R)-1-(2,5-difluoropyridin-3-yl)ethyl (4-(5-((1RS,3RS)-2,2-difluoro-3-phenylcyclopropane-1-carboxamido)pyridin-2-yl)-1-methyl-1H-1,2,3-triazol-5-yl)carbamate]",13 nM
5,"C[C@@H](OC(=O)Nc1c(-c2ccc(NC(=O)C3(C(F)(F)F)CC(=O)C3)cn2)nnn1C)c1cccnc1Cl [Compound 120, (R)-1-(2-chloropyridin-3-yl)ethyl (1-methyl-4-(5-(3-oxo-1-(trifluoromethyl)cyclobutane-1-carboxamido)pyridin-2-yl)-1H-1,2,3-triazol-5-yl)carbamate]",2470 nM
6,"C[C@@H](OC(=O)Nc1c(-c2cnc(NC(=O)c3ccc(C(F)(F)F)nc3)cn2)nnn1C)c1cccnc1F [Compound 326, (R)-1-(2-fluoropyridin-3-yl)ethyl (1-methyl-4-(5-(6-(trifluoromethyl)nicotinamido)pyrazin-2-yl)-1H-1,2,3-triazol-5-yl)carbamate]",305 nM
7,"C[C@@H](OC(=O)Nc1c(-c2ccc(NC(=O)c3ccc(C(F)F)nc3)cn2)nnn1C)c1cccnc1F [Compound 295, (R)-1-(2-fluoropyridin-3-yl)ethyl (4-(5-(6-(difluoromethyl)nicotinamido)pyridin-2-yl)-1-methyl-1H-1,2,3-triazol-5-yl)carbamate]",391 nM
8,"C[C@@H](OC(=O)Nc1c(-c2ccc(NC(=O)C3(C)CS(=O)(=O)C3)cn2)nnn1C)c1cc(F)cnc1F [Compound 228, (R)-1-(2,5-difluoropyridin-3-yl)ethyl (1-methyl-4-(5-(3-methyl-1,1-dioxidothietane-3-carboxamido)pyridin-2-yl)-1H-1,2,3-triazol-5-yl)carbamate]",403 nM
9,"COC12CC(C(=O)Nc3ccc(-c4nnn(C)c4NC(=O)O[C@H](C)c4cccnc4Cl)nc3)(C1)C2 [Compound 46, (R)-1-(2-chloropyridin-3-yl)ethyl (4-(5-(3-methoxybicyclo[1.1.1]pentane-1-carboxamido)pyridin-2-yl)-1-methyl-1H-1,2,3-triazol-5-yl)carbamate]",29.7 nM
10,"C[C@@H](OC(=O)Nc1c(-c2ccc(NC(=O)C3(C#N)CCNC3)cn2)nnn1C)c1cc(F)cnc1F (stereo partly drawn) [Compound 302, (R)-1-(2,5-difluoropyridin-3-yl)ethyl (4-(5-(3-cyanopyrrolidine-3-carboxamido)pyridin-2-yl)-1-methyl-1H-1,2,3-triazol-5-yl)carbamate]",669 nM
11,"C[C@@H](OC(=O)Nc1c(-c2ccc(NC(=O)c3ccc(F)nc3)cn2)nnn1C)c1cc(F)cnc1F [Compound 220, (R)-1-(2,5-difluoropyridin-3-yl)ethyl (4-(5-(6-fluoronicotinamido)pyridin-2-yl)-1-methyl-1H-1,2,3-triazol-5-yl)carbamate]",158 nM
